These results are taken from US5523314A, “Compounds useful as hypoglycemic agents and for treating Alzheimer's disease” (priority 1994, dated 1996).

Where two headings read alike, the source gives them in different places.

For assay [1], the target named is T1, Human liver cathepsin D (Homo sapiens, UniProt P07339).
T1 construct: purchased Athens Research and Technology, Athens, Ga; host or cells: human liver
In words: Cathepsin D inhibition, fluorometric assay (Tables 5 and 6). The class given is biochemical. The note with it: for inhibition at 4.15 µg/mL (stock): Compound Stock Concentration 4.15 μg/ml. An outline of the steps: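 Human liver cathepsin D at 500 ng/mL in 200 mM NaOAc pH 4.5, 150 mM NaCl, incubated 30 minutes at 37° C. Reaction stopped with microsomal leucine aminopeptidase (pH 8.0), which over two hours at 37° C releases AMC from cleavage products for fluorometric reading; aminopeptidase inhibition checked with Leu-pNA.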

The subject of assay [2] is plasma glucose concentration. Kind of assay: Long-term hypoglycemic activity, compound in diet, ZDF rats (Table 4). To be noted: 0.1% in diet. The class given is in vivo, 8 week old male Zucker Diabetic Fatty rat. On the procedure: (§1) Finally, the long-term hypoglycemic activity of the compounds of the present invention was tested in yet another in vivo test system. This long-term test system entailed incorporating test compound into the test animal's diet at various concentrations (control animal's diet contained no test compound). Such diet was then fed to the test or control animals for either 14 or 21 days. Each test or control animal was then bled from the tail (200-400 μl sample of blood) at 0 (before diet started), 7, 14 and, if appropriate, 21 and 28 days after diet administration was started. Plasma samples were then obtained from each blood sample collected and the glucose concentration of such plasma samples was determined enzymatically.
(§2) Columns 4-8 provide the plasma glucose concentration at days 0, 7, 14 and, if appropriate, 21 and 28, respectively, for the animals tested. Glucose lowering was not associated with depressed diet consumption.

Assay [3] concerns β-amyloid protein. In words: β-amyloid protein production inhibition in 293 751 SWE and CHO 751 SWE cells, ELISA (Table 7). The format is cell-based. The note with it: Compound Stock Concentration 10.0 μg/ml; normalized for cytotoxicity. On the procedure: Two cell lines (human kidney cell line 293 and Chinese hamster ovary cell line CHO) were stably transfected with the gene for APP751 containing the double mutation Lys-651-Met-652 to Asn-651-Leu-652 (APP-751 numbering) commonly called the Swedish mutation using the method described in Citron et al., Nature 360:672-674 (1992). The transfected cell lines were designated as 293 751 SWE and CHO 751 SWE, and were plated in Corning 96 well plates at 2.5×10^4 or 1×10^4 cells per well respectively in Dulbecco's minimal essential media (DMEM) plus 10% fetal bovine serum. […] These compound stocks were prepared by dissolving a sufficient quantity of the particular compound to be tested in DMSO such that various concentrations were obtained. After this pretreatment period, the conditioned media was removed and replaced with fresh conditioned media and the cells were incubated for an additional two hours.
After treatment, plates were centrifuged in a Beckman GPR at 1200 rpm for five minutes at room temperature to pellet cellular debris from the conditioned media. From each well, 100 μL of conditioned media were transferred into an ELISA plate precoated with antibody 266 [Seubert et al., Nature, 359:325-327 (1992)] and stored at 4° C. overnight prior to the completion of the ELISA assay the next day.
Cytotoxic effects of the compounds were measured by a modification of the method of Hansen et al., J. Immun. Meth. 119:203-210 (1989). To the cells remaining in the tissue culture plate, was added 25 μL of a 3-(4,5-dimethylthiazol-2-yl)-2,5-diphenyltetrazolium bromide (MTT) stock solution (5 mg/mL) to a final concentration of 1 mg/mL. Cells were incubated at 37° C. for one hour, and cellular activity was stopped by the addition of an equal volume of MTT lysis buffer (20% w/v sodium dodecylsulfate in 50% DMF, pH 4.7). Complete extraction was achieved by overnight shaking at room temperature. The difference in the OD562nm and the OD650nm was measured in a Molecular Devices UVmax microplate reader as an indicator of the cellular viability.
The results of the β-amyloid protein ELISA were fit to a standard curve and expressed as ng/mL β-amyloid protein peptide. In order to normalize for cytotoxicity, these β-amyloid protein results were divided by the cytotoxicity results and expressed as a percentage of the results from a drug-free control.

The test system of assay [4] is blood glucose level. Kind of assay: Hypoglycemic activity in obese diabetic mice (Table 1). The note with it: for response vs control in vivo at 10 mg/kg / response vs control in vivo at 25 mg/kg / response vs control in vivo at 50 mg/kg: Mus musculus, ip, intraperitoneal; for ability to lower blood glucose levels in mammals: compared to structurally similar compounds known in the art, in words. The class given is in vivo, male viable yellow obese-diabetic mice. In outline:
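Male viable yellow obese-diabetic mice, six per group, dosed intraperitoneally once with compound in saline containing 2% Emulphor. Blood glucose measured by glucose oxidase before dosing and at 2 and 4 h. Values are the 2 h and 4 h glucose as % of pre-dose level.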

Assay [5] concerns blood glucose level. In words: Hypoglycemic activity in normal fed rats (Table 2). The note with it: Rattus norvegicus, oral. The class given is in vivo, male Sprague Dawley rats. On the procedure: The procedure used in this test system is described below.
The desired dose level of each test formulation was administered to four rats by oral […] at the beginning of the experiment. Blood glucose levels were determined immediately before the first dose and at 3 and 5 hours thereafter by an enzymatic procedure employing glucose oxidase and peroxidase coupled with a chromogenic oxygen acceptor. A mean was taken of the 4 values obtained before the first dose and at the 3 and 5 hour intervals.

Assay [6] concerns blood glucose level. Kind of assay: Hypoglycemic activity in obese diabetic Zucker rats (Table 3). The note with it: oral. The class given is in vivo, obese diabetic Zucker rat (Zucker Diabetic Fatty Rat). On the procedure: Male Sprague Dawley rats (Charles River Laboratories) weighing 175-200 g were used in this test system. […] The desired dose level of each test formulation was administered to four rats by oral […] at the beginning of the experiment. Blood glucose levels were determined immediately before the first dose and at 3 and 5 hours thereafter by an enzymatic procedure employing glucose oxidase and peroxidase coupled with a chromogenic oxygen acceptor. A mean was taken of the 4 values obtained before the first dose and at the 3 and 5 hour intervals.
The procedure used in this test system is the same as that described for the normal fed rat test system, above. The format of Table 3 is the same as that used in Table 2.

The test system of assay [7] is plasma glucose concentration. In words: Long-term hypoglycemic activity, compound in diet, A^vy /a mice (Table 4). The class given is in vivo, viable yellow mouse. To be noted: 0.1% in diet, Male A^vy /a (Harlan). The procedure: as §1, §2
The mark [8] stands for this setting: 2 h, 2 hrs, read-out: Percent of Initial Blood Glucose Level After 2 hrs.
Setting [9] is: 4 h, 4 hrs, read-out: Percent of Initial Blood Glucose Level After 4 hrs.
Setting [10] is: 3 hrs, read-out: Percent of Initial Blood Glucose Level After 3 hrs.
[11] abbreviates: 5 hrs, read-out: Percent of Initial Blood Glucose Level After 5 hrs.

T1 sequence (P07339 169-412 limits assumed): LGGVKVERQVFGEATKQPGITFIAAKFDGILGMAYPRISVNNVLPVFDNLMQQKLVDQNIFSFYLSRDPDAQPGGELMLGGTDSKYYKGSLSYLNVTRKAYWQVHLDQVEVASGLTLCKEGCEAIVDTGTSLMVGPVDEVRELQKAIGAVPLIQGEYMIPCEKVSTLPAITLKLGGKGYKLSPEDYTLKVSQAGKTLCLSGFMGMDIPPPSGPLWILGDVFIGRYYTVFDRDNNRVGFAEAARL
T1 sequence (P07339 65-161 limits assumed): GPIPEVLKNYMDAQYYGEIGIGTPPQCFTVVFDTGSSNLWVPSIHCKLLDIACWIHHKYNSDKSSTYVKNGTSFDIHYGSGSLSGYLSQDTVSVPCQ

`CCCCCOc1c(OC)cc(C=C2SC(=S)NC2=O)cc1OC` [Example 70, 5-[(3,5-dimethoxy-4-pentoxyphenyl)methylene]-2-thioxo-4-thiazolidinone] came in with an IC50 in assay [1] of 5.4 µM. This compound also displayed an inhibition at 4.15 µg/mL (stock) in assay [1] of 66%. In addition, the figures for the “Plasma Glucose Concentration” value in assay [2] (day 0 (before diet started)), in assay [2] (day 7) and in assay [2] (day 14) were 300 mg/dL, 190 mg/dL and 195 mg/dL, respectively. This compound also registered an inhibition at 10 µg/mL (stock) in assay [3] of 38%.
The compound `CC(C)(C)c1cc(C=C2SC(=S)NC2=O)cc(CSc2ccccc2)c1O` [Example 71] came in with an IC50 in assay [1] (50% inhibition of cathepsin D) of 2.1 µM. Also, the inhibition at 8.3 µg/mL (stock) in assay [1] (Compound Stock Concentration 8.3 μg/ml) was determined as 94%. The inhibition at 10 µg/mL (stock) in assay [1] (Compound Stock Concentration 10.0 μg/ml) stood at 76%; in assay [3], 65%. The “Plasma Glucose Concentration” value in assay [2] (day 0 (before diet started)) is 311 mg/dL; in assay [2] (day 7) it was 237 mg/dL; in assay [2] (day 14), 232 mg/dL.
As to `CCCCOc1ccc(C=C2SC(=S)NC2=O)cc1OCC` [Example 56, 5-[(3-ethoxy-4-butoxyphenyl)methylene]-2-thioxo-4-thiazolidinone], in assay [4] (setting [8]), the response vs control in vivo at 10 mg/kg worked out at 94 ± 4%, the response vs control in vivo at 25 mg/kg stood at 81 ± 8% and the response vs control in vivo at 50 mg/kg came out at 78 ± 4%. In assay [4] (setting [9]), the response vs control in vivo at 10 mg/kg stood at 97 ± 4%, the response vs control in vivo at 25 mg/kg was 75 ± 3% and the response vs control in vivo at 50 mg/kg amounted to 72 ± 3%. For the same compound, in assay [4], the “ability to lower blood glucose levels in mammals” value is “surprising ability to lower blood glucose levels in mammals”. For the same compound, in assay [1], the IC50 amounted to 12.3 µM and the inhibition at 4.15 µg/mL (stock) was determined as 73%. In assay [1] (compared to structurally similar compounds known in the art, in words), the “ability to inhibit cathepsin D” value was “surprising ability to inhibit cathepsin D levels”. Also, the response vs control in vivo at 150 mg/kg in assay [5] (setting [10]) turned out to be 79%. Further, the response vs control in vivo at 150 mg/kg in assay [5] (setting [11]) was 65%. In addition, in assay [6] (50 mg/kg), the “Percent of Initial Blood Glucose Level After 3 hrs.” value was determined as 79% and the “Percent of Initial Blood Glucose Level After 5 hrs.” value was found to be 66%.
Take `CCCCCOc1ccc(C=C2SC(=S)NC2=O)cc1` [Example 47, 5-[(4-pentoxyphenyl)methylene]-2-thioxo-4-thiazolidinone]: in assay [4] (setting [8]), the response vs control in vivo at 50 mg/kg was found to be 99 ± 14%. For the same compound, the response vs control in vivo at 50 mg/kg in assay [4] (setting [9]) stood at 76 ± 8%. Further, in assay [4], the “ability to lower blood glucose levels in mammals” value is “surprising ability to lower blood glucose levels in mammals”. In assay [1], this compound had an IC50 of 5.2 µM and an inhibition at 4.15 µg/mL (stock) of 60.5%. In assay [5] (setting [10]), the response vs control in vivo at 200 mg/kg turned out to be 82%. Besides, in assay [5] (setting [11]), the response vs control in vivo at 200 mg/kg was 73%. Also, in assay [6] (167 mg/kg), the “Percent of Initial Blood Glucose Level After 3 hrs.” value is on record as 74% and the “Percent of Initial Blood Glucose Level After 5 hrs.” value worked out at 66%.
As to `CCOc1ccc(C=C2SC(=S)NC2=O)cc1OCC` [Example 38, 5-[(3,4-diethoxyphenyl)methylene]-2-thioxo-4-thiazolidinone], the response vs control in vivo at 10 mg/kg was 72 ± 4% in assay [4] (setting [8]) and 71 ± 6% in assay [4] (setting [9]). The response vs control in vivo at 25 mg/kg was 69 ± 9% in assay [4] (setting [8]) and 65 ± 7% in assay [4] (setting [9]). Also, the “Plasma Glucose Concentration” value in assay [7] (day 0 (before diet started)) is 340 mg/dL; in assay [7] (day 7), 351 mg/dL; in assay [7] (day 14), 328 mg/dL; in assay [7] (day 21) it was 303 mg/dL; in assay [7] (day 28), 331 mg/dL. Moreover, the figures for the response vs control in vivo at 200 mg/kg in assay [5] (setting [10]) and in assay [5] (setting [11]) were 90% and 74%, respectively.
For `CCCCCOc1ccc(CC2SC(=S)NC2=O)cc1OC` (stereo not shown) [Example 64, 5-[(3-methoxy-4-pentoxyphenyl)methyl]-2-thioxo-4-thiazolidinone], the response vs control in vivo at 200 mg/kg in assay [5] (setting [10]) was found to be 91%; in assay [5] (setting [11]), 89%. Also, the “Plasma Glucose Concentration” value in assay [2] (day 0 (before diet started)) was found to be 339 mg/dL; in assay [2] (day 7) it was 187 mg/dL; in assay [2] (day 14), 182 mg/dL.
